Common to all, as to test: growth of human tumour cells (NCI), 48 h
Assay [1] concerns SF-268 CNS.
In assay [2] the test system is NCI-H226 lung.
The subject of assay [3] is LOX IMVI melanoma.
In assay [4] the test system is SW-620 colon.
Assay [5] relates to U251 CNS.
Assay [6] concerns RXF 393 renal.
Assay [7] has as its system HOP-62 NSCLC.
Assay [8] deals with NCI-H522 lung.
The test system of assay [9] is A549 NSCLC.
Assay [10] has as its system NCI-H23 lung.
Assay [11] deals with K-562 leukemia.

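Dose response: 5 concentrations. Exposure: 48 h. Format: 96-well plates. Endpoint: linear interpolation; highest concentration if not reached. Here, GI50 denotes the concentration required for 50% inhibition of growth. TGI is the concentration that stops growth completely.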

From PubChem BioAssay (NCI) come the findings set out here.

As to `CCC1(CCSC(=N)N)C(=O)NC(=O)NC1=O`, the TGI in [1], in [2], in assay [3], in [4], in assay [5] and in assay [6] was over 100 µM throughout. Besides, the TGI in [7], in assay [8], in assay [9], in assay [10] and in [11] was over 100 µM in each case.
On to `C=C1CC[C@@H](Br)C(C)(C)[C@]12CCC(C)(O)C(Cl)C2` (stereo partly drawn), for which the TGI worked out at 32.6 µM in [1]; 31 µM in assay [2]; 35.2 µM in assay [3]; 27.2 µM in [4]; 29.7 µM in [5]; 34.2 µM in assay [6]. Moreover, the TGI is 49.7 µM in assay [7]; 32 µM in assay [8]; 45.2 µM in assay [9]; 64.4 µM in assay [10]; 49.4 µM in assay [11].
As for `O=C(O)NCc1ccccc1` (tested in a mixture with another compound), the TGI in assay [1] was over 100 µM; in assay [2], over 79.7 µM; in assay [3], over 100 µM; in [4], over 100 µM; in assay [5], over 77.6 µM; in [6] it was over 75.5 µM. Further, the TGI is over 100 µM in assay [7]; 96.7 µM in assay [8]; over 100 µM in assay [9]; over 100 µM in assay [10]; over 77 µM in assay [11].
Turning to `CC(=O)OC/C=C/Cn1ncc(=O)[nH]c1=O`, the TGI in assay [1], in [2], in assay [3], in [4], in assay [5] and in assay [6] was over 100 µM throughout. In addition, the TGI in assay [7], in assay [8], in [9] and in [11] was over 100 µM each time.
For the molecule `O=[As](O)(O)c1ccc(N=Nc2ccc([As](=O)(O)O)cc2)cc1`, the TGI in assay [1], in assay [2], in assay [3], in assay [4], in [5] and in assay [6] was over 100 µM in each case. Moreover, the TGI in assay [7], in [8], in assay [9], in assay [10] and in [11] was over 100 µM in each case.
In the case of `Nc1nncc2c1ccn2C1OC(CO)C(O)C1O` (stereo not drawn), the TGI in assay [1], in assay [2], in [3], in assay [4], in assay [5] and in assay [6] was over 100 µM each time. In addition, the TGI in [7], in [9], in assay [10] and in assay [11] was over 100 µM in each case.
As to `O=C(O)CCSCc1ccc(I)cc1`, the TGI in assay [1], in [2], in [3], in assay [4], in assay [5] and in [6] was over 100 µM throughout. The TGI in assay [7], in [8], in assay [9], in assay [10] and in assay [11] was over 100 µM in each case.
As for `COc1cc(N/N=C/C#N)cc(OC)c1OC`, the TGI was over 10 µM in assay [1]; over 10 µM in [2]; 3.24 µM in assay [3]; over 10 µM in [4]; over 10 µM in assay [5]; over 10 µM in [6]. Moreover, the TGI in assay [7] was over 10 µM; in [8], 3.68 µM; in assay [9], over 10 µM; in assay [10], over 10 µM; in [11], over 10 µM.
As to `Cc1cc2c(cc1C)[n+](=O)c(C#N)c(Cl)n2[O-]`, the TGI in assay [1] is over 100 µM; in assay [2], over 100 µM; in assay [3] it was 39.2 µM; in assay [4], 41.6 µM; in assay [5], 70.9 µM; in assay [6], 26.4 µM. In addition, the TGI was 55.7 µM in [7]; 26.3 µM in assay [8]; 80.8 µM in assay [9]; 25.1 µM in assay [10]; over 100 µM in [11].
For `O=C(CCl)NC(Cc1ccc(F)cc1)C(=O)O` (stereo not drawn), the TGI in assay [1], in assay [2], in assay [3], in assay [4], in assay [5] and in [7] was over 100 µM each time. Also, the TGI in [8], in assay [9], in assay [10] and in assay [11] was over 100 µM each time.
As for `CCOC(=O)[C@H]1Nc2c(cccc2[N+](=O)[O-])[C@H]2OCC[C@@H]12`, the TGI in assay [1], in assay [2], in assay [3], in assay [4], in assay [5] and in assay [6] was over 100 µM in each case. For the same molecule, the TGI in assay [7], in assay [8], in assay [9], in [10] and in assay [11] was over 100 µM in each case.
Take `CC(C)OC(=O)C1=C(O)c2ccccc2S(=O)(=O)N1`: the TGI in assay [1], in assay [2], in assay [3], in assay [4], in assay [5] and in [7] was over 100 µM each time. In addition, the TGI in [8], in assay [9], in [10] and in assay [11] was over 100 µM in each case.
Take `Nc1c(-c2nc3ccccc3o2)sc(=S)n1-c1ccc(Cl)cc1`: the TGI came to 33.9 µM in assay [1]; 67.1 µM in assay [2]; 37.5 µM in [5]; 66.8 µM in [6]; 15.8 µM in assay [7]; 49.7 µM in assay [8]. Moreover, the TGI was 39.2 µM in [9], 37.8 µM in [10] and over 100 µM in [11].
Regarding `O=C(N/C(=C\c1cccc([N+](=O)[O-])c1)c1nc2[nH]c(=S)[nH]c(=O)c2[nH]1)c1ccccc1`, the TGI in assay [1], in [2], in assay [3], in assay [4], in assay [5] and in assay [6] was over 100 µM in each case. In addition, the TGI in [7], in assay [8], in [9], in assay [10] and in [11] was over 100 µM in each case.
As for `O=C(O)c1ccc([N+]2=Cn3c(nc4ccccc43)C2)cc1`, the TGI in assay [1], in assay [2], in assay [3], in assay [4], in assay [5] and in [6] was over 100 µM in each case. For the same molecule, the TGI in assay [7], in [8], in [9], in assay [10] and in assay [11] was over 100 µM each time.
Turning to `O=C(O)c1cc2cc(c1)N=Cc1ccccc1OCc1cccc(n1)COc1ccccc1C=N2`, the TGI in [1], in assay [2], in [4], in [5], in [6] and in assay [7] was over 25 µM throughout. Moreover, the TGI in assay [8], in assay [9], in assay [10] and in assay [11] was over 25 µM throughout.
With `CC[C@H](Nc1nc(N)nc(C)c1C#N)c1nc2cccc(NCc3ccc(C(=O)NO)cc3)c2c(=O)n1-c1ccccc1`, the GI50 in assay [1] is 1.33 µM; in assay [2], 1.61 µM; in assay [4], 1.7 µM; in assay [6] it was 1.21 µM; in [7] it was 2.35 µM; in assay [9], 2.35 µM. The GI50 in [11] is 2.44 µM. The TGI in assay [1] stood at 3.19 µM; in assay [2], 4.13 µM; in assay [4], 3.92 µM; in assay [6], 3.05 µM; in assay [7], 6.22 µM; in [9] it was 5.43 µM. Further, in [11], the TGI was over 100 µM.
`O=C1Nc2ccccc2S/C1=C\c1ccccc1C(F)(F)F`: the TGI in assay [1], in assay [2], in [3], in assay [4], in assay [5] and in [6] was over 100 µM each time. Besides, the TGI in assay [7], in [8] and in assay [9] was over 100 µM in each case.
Regarding `CC(=O)O[C@H]1CC[C@@]2(C)C(=CC[C@@H]3[C@@H]2CC[C@]2(C)Nc4c(cnn4S(C)(=O)=O)C[C@@H]32)C1`, the TGI is over 100 µM in [2]; over 100 µM in assay [5]; 92.2 µM in assay [6]; over 100 µM in assay [7]; over 100 µM in assay [8]; over 100 µM in assay [10]. In assay [11], the TGI is over 100 µM.
For the molecule `Cc1ccc([N+](=O)[O-])cc1NC(=O)C(=O)C(C(=O)c1ccccc1F)C1OC(=O)c2ccccc21` (stereo not drawn), the TGI is 98.8 µM in assay [1]; 69.6 µM in assay [2]; 90.3 µM in assay [3]; over 100 µM in assay [4]; 43.6 µM in assay [5]; 53.9 µM in [6]. For the same molecule, the TGI was over 100 µM in [7]; 59.2 µM in [8]; over 100 µM in assay [9]; over 100 µM in assay [10]; over 100 µM in assay [11].
For `N=c1nc2n(cc1F)[C@@H]1O[C@H](CO)[C@@H](O)[C@@H]1O2`, the TGI in [1] was over 100 µM; in assay [2] it was over 100 µM; in [3], over 100 µM; in assay [4], over 100 µM; in assay [5], over 91.9 µM; in assay [6], over 56.2 µM. Also, the TGI in [7] was over 100 µM; in assay [8], over 74.7 µM; in [9], over 100 µM; in assay [10] it was over 55.8 µM; in assay [11] it was over 100 µM.
With `NC(=S)Nc1cc(Cl)ccc1Cl`, the TGI in assay [1], in assay [2], in assay [3], in [4], in assay [5] and in assay [6] was over 100 µM throughout. Besides, the TGI in assay [7], in [8], in assay [9], in assay [10] and in assay [11] was over 100 µM each time.
Regarding `CCOC(=O)Nc1cc2c(c(N)n1)N=C(c1ccccc1)[C@H](C)N2`, the TGI in assay [1] is over 100 µM; in assay [2], 0.0464 µM; in assay [3] it was 17.7 µM; in assay [4], over 100 µM; in [7], 22.9 µM; in assay [8], under 0.0001 µM. In addition, the TGI is over 100 µM in assay [9] and 0.0464 µM in [10]. Besides, the GI50 in assay [5] and in assay [7] was under 0.0001 µM each time.
On to `Oc1ccc2oc3c(O)c4ccccc4cc3c2c1`, for which the TGI was 21.5 µM in [1]; 21.9 µM in assay [3]; 14.1 µM in assay [4]; 21.1 µM in assay [5]; 16.9 µM in [6]; over 100 µM in assay [7]. Also, the TGI in assay [8] was 2.71 µM; in [9], over 100 µM; in [10], 65.3 µM; in assay [11], 1.3 µM.
As to `O=[N+]([O-])c1ccc2c(c1)Nc1c3ccccc3nc3cccc-2c13`, the TGI in assay [1] is 40.5 µM; in assay [2], over 93.6 µM; in [3], 6.67 µM; in [4] it was 15.8 µM; in assay [5], 18.6 µM; in assay [6], 32.9 µM. The TGI in assay [7] was 7.7 µM; in [8], 33.2 µM; in assay [9], 15.9 µM; in [10] it was over 55.1 µM; in assay [11], over 19.7 µM.
On to `Cc1ccc(C[P+]2(c3ccccc3)CCCCC2)cc1`, for which the TGI is over 100 µM in assay [2]; over 100 µM in [3]; over 100 µM in assay [4]; 42.4 µM in [5]; over 100 µM in assay [6]; over 100 µM in assay [7]. Moreover, the TGI in assay [8], in assay [9], in assay [10] and in assay [11] was over 100 µM in each case.
